Values of other authors in patent EP1688139A1 (Board of Regents of the University of Nebraska, priority 2000, dated 2002).

Tested on: 3-nitropropionic acid
Conditions: rats, diet supplemented with creatine for 2 weeks, exposed to 3-nitropropionic acid

N-aminoiminomethyl-N-methylglycine [Creatine]
less lesion volume than nonsupplemented animals: 83%
